Laboratory results reported in patent US8796289B2 (AbbVie Inc., priority 2011, dated 2014).

Biological target: GST-tagged-Wee1 kinase (Homo sapiens, UniProt P30291)
Assay: Wee1 time-resolved fluorescence equilibrium binding assay (displacement of Oregon Green-labeled ATP-competitive kinase probe)
Procedure: Wee1 kinase was assayed using a time-resolved fluorescence equilibrium binding assay monitoring displacement of a rapidly reversible Oregon Green-labeled ATP-competitive kinase probe (N-(2-(2-(2-(4-(4-(5-chloro-4-(2-(1-hydroxycyclobutyl)thiazol-5-yl)-1H-pyrrolo[2,3-b]pyridin-2-yl)phenyl)piperazin-1-yl)ethoxy)ethoxy)ethyl)-2′,7′-difluoro-3′,6′-dihydroxy-3-oxo-3H-spiro[isobenzofuran-1,9′-xanthene]-5-carboxamide) by competitive Wee1 inhibitors.

Sequence of GST-tagged-Wee1 kinase (P30291 whole entry): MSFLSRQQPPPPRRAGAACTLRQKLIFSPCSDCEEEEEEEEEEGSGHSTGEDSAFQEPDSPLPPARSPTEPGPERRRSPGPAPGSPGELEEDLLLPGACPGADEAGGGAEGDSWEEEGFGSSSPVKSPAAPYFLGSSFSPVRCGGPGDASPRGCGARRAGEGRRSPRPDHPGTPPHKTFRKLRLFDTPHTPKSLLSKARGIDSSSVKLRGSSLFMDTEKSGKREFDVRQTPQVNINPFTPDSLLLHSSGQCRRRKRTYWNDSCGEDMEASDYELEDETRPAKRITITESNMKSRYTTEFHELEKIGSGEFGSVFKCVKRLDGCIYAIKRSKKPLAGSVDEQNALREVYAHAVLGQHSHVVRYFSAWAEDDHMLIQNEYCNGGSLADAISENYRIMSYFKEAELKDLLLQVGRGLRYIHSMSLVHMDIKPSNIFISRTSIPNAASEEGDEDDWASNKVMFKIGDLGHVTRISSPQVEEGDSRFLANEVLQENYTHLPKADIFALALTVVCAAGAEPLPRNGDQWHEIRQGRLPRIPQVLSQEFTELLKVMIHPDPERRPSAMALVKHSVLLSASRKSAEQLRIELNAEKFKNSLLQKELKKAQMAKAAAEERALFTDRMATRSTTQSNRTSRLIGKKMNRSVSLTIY

SMILES	Ki
COc1ccccc1-n1nc(C2CCCC2)c2nc(Nc3ccc(N4CCN(C)CC4)cc3)ncc2c1=O [Example 57, 8-cyclopentyl-6-(2-methoxyphenyl)-2-{[4-(4-methylpiperazin-1-yl)phenyl]amino}pyrimido[4,5-d]pyridazin-5(6H)-one]	7 nM
COc1cccc(-c2nn(-c3ccccc3)c(=O)c3cnc(Nc4ccc(N5CCN(C)CC5)cc4)nc23)c1 [Example 58, 8-(3-methoxyphenyl)-2-{[4-(4-methylpiperazin-1-yl)phenyl]amino}-6-phenylpyrimido[4,5-d]pyridazin-5(6H)-one]	2 nM
CN1CCN(c2ccc(Nc3ncc4c(=O)n(-c5ccccc5)nc(-c5ccc(-c6ncccn6)cc5)c4n3)cc2)CC1 [Example 59, 2-{[4-(4-methylpiperazin-1-yl)phenyl]amino}-6-phenyl-8-[4-(pyrimidin-2-yl)phenyl]pyrimido[4,5-d]pyridazin-5(6H)-one]	3 nM
CN1CCN(c2ccc(Nc3ncc4c(=O)n(-c5ccccc5Cl)nc(-c5ccccn5)c4n3)cc2)CC1 [Example 60, 6-(2-chlorophenyl)-2-{[4-(4-methylpiperazin-1-yl)phenyl]amino}-8-(pyridin-2-yl)pyrimido[4,5-d]pyridazin-5(6H)-one]	1 nM
CN1CCN(c2ccc(Nc3ncc4c(=O)n(-c5ccccc5Cl)nc(-c5ccc(-c6ncccn6)cc5)c4n3)cc2)CC1 [Example 61, 6-(2-chlorophenyl)-2-{[4-(4-methylpiperazin-1-yl)phenyl]amino}-8-[4-(pyrimidin-2-yl)phenyl]pyrimido[4,5-d]pyridazin-5(6H)-one]	< 1 nM
C=CCn1nc(-c2ccc(-c3ncccn3)cc2)c2nc(Nc3ccc(N4CCN(C)CC4)cc3)ncc2c1=O [Example 62, 6-allyl-2-{[4-(4-methylpiperazin-1-yl)phenyl]amino}-8-[4-(pyrimidin-2-yl)phenyl]pyrimido[4,5-d]pyridazin-5(6H)-one]	11 nM
C=CCn1nc(-c2cccc(OC)c2)c2nc(Nc3ccc(N4CCN(C)CC4)cc3)ncc2c1=O [Example 63, 6-allyl-8-(3-methoxyphenyl)-2-{[4-(4-methylpiperazin-1-yl)phenyl]amino}pyrimido[4,5-d]pyridazin-5(6H)-one]	5 nM
Cc1ccccc1-n1nc(-c2ccc(-c3ncccn3)cc2)c2nc(Nc3ccc(N4CCN(C)CC4)cc3)ncc2c1=O [Example 64, 6-(2-methylphenyl)-2-{[4-(4-methylpiperazin-1-yl)phenyl]amino}-8-[4-(pyrimidin-2-yl)phenyl]pyrimido[4,5-d]pyridazin-5(6H)-one]	0.3 nM
CN1CCN(c2ccc(Nc3ncc4c(=O)n(-c5ccccc5Cl)nc(-c5cccc(Br)c5)c4n3)cc2)CC1 [Example 65, 8-(3-bromophenyl)-6-(2-chlorophenyl)-2-{[4-(4-methylpiperazin-1-yl)phenyl]amino}pyrimido[4,5-d]pyridazin-5(6H)-one]	1 nM
Cc1ccccc1-n1nc(-c2cccc(Br)c2)c2nc(Nc3ccc(N4CCN(C)CC4)cc3)ncc2c1=O [Example 66, 8-(3-bromophenyl)-6-(2-methylphenyl)-2-{[4-(4-methylpiperazin-1-yl)phenyl]amino}pyrimido[4,5-d]pyridazin-5(6H)-one]	4 nM
CN1CCN(c2ccc(Nc3ncc4c(=O)n(-c5ccccc5)nc(-c5cccc(Br)c5)c4n3)cc2)CC1 [Example 67, 8-(3-bromophenyl)-2-{[4-(4-methylpiperazin-1-yl)phenyl]amino}-6-phenylpyrimido[4,5-d]pyridazin-5(6H)-one]	14 nM
C=CCn1nc(-c2cccc(Br)c2)c2nc(Nc3ccc(N4CCN(C)CC4)cc3)ncc2c1=O [Example 68, 6-allyl-8-(3-bromophenyl)-2-{[4-(4-methylpiperazin-1-yl)phenyl]amino}pyrimido[4,5-d]pyridazin-5(6H)-one]	14 nM
CN1CCN(c2ccc(Nc3ncc4c(=O)n(-c5c(Cl)cccc5Cl)nc(-c5ccco5)c4n3)cc2)CC1 [Example 69, 6-(2,6-dichlorophenyl)-8-(2-furyl)-2-{[4-(4-methylpiperazin-1-yl)phenyl]amino}pyrimido[4,5-d]pyridazin-5(6H)-one]	0.06 nM
CN1CCN(c2ccc(Nc3ncc4c(=O)n(-c5c(Cl)cccc5Cl)nc(-c5cccs5)c4n3)cc2)CC1 [Example 70, 6-(2,6-dichlorophenyl)-2-{[4-(4-methylpiperazin-1-yl)phenyl]amino}-8-(2-thienyl)pyrimido[4,5-d]pyridazin-5(6H)-one]	0.1 nM
Cc1ccccc1-c1nn(-c2c(Cl)cccc2Cl)c(=O)c2cnc(Nc3ccc(N4CCN(C)CC4)cc3)nc12 [Example 71, 6-(2,6-dichlorophenyl)-8-(2-methylphenyl)-2-{[4-(4-methylpiperazin-1-yl)phenyl]amino}pyrimido[4,5-d]pyridazin-5(6H)-one]	0.2 nM
CN1CCN(c2ccc(Nc3ncc4c(=O)n(-c5c(Cl)cccc5Cl)nc(-c5cccc(Br)c5)c4n3)cc2)CC1 [Example 72, 8-(3-bromophenyl)-6-(2,6-dichlorophenyl)-2-{[4-(4-methylpiperazin-1-yl)phenyl]amino}pyrimido[4,5-d]pyridazin-5(6H)-one]	0.5 nM
CN1CCN(c2ccc(Nc3ncc4c(=O)n(-c5ccccc5)nc(-c5cccc(Cl)n5)c4n3)cc2)CC1 [Example 73, 8-(6-chloropyridin-2-yl)-2-{[4-(4-methylpiperazin-1-yl)phenyl]amino}-6-phenylpyrimido[4,5-d]pyridazin-5(6H)-one]	3 nM
CN1CCN(c2ccc(Nc3ncc4c(=O)n(-c5c(Cl)cccc5Cl)nc(C5CCCC5)c4n3)cc2)CC1 [Example 74, 8-cyclopentyl-6-(2,6-dichlorophenyl)-2-{[4-(4-methylpiperazin-1-yl)phenyl]amino}pyrimido[4,5-d]pyridazin-5(6H)-one]	1 nM
CN1CCN(c2ccc(Nc3ncc4c(=O)n(-c5c(Cl)cccc5Cl)nc(-c5cccc(NNc6c(Cl)cccc6Cl)n5)c4n3)cc2)CC1 [Example 76, 6-(2,6-dichlorophenyl)-8-{6-[2-(2,6-dichlorophenyl)hydrazino]pyridin-2-yl}-2-{[4-(4-methylpiperazin-1-yl)phenyl]amino}pyrimido[4,5-d]pyridazin-5(6H)-one]	4 nM
CN1CCN(c2ccc(Nc3ncc4c(=O)n(-c5ccccc5)nc(-c5cccnc5Cl)c4n3)cc2)CC1 [Example 78, 8-(2-chloropyridin-3-yl)-2-{[4-(4-methylpiperazin-1-yl)phenyl]amino}-6-phenylpyrimido[4,5-d]pyridazin-5(6H)-one]	48 nM
CCOc1ncccc1-c1nn(-c2ccccc2)c(=O)c2cnc(Nc3ccc(N4CCN(C)CC4)cc3)nc12 [Example 79, 8-(2-ethoxypyridin-3-yl)-2-{[4-(4-methylpiperazin-1-yl)phenyl]amino}-6-phenylpyrimido[4,5-d]pyridazin-5(6H)-one]	710 nM
CN1CCN(c2ccc(Nc3ncc4c(=O)n(-c5ccccc5Cl)nc(-c5cccnc5Cl)c4n3)cc2)CC1 [Example 80, 6-(2-chlorophenyl)-8-(2-chloropyridin-3-yl)-2-{[4-(4-methylpiperazin-1-yl)phenyl]amino}pyrimido[4,5-d]pyridazin-5(6H)-one]	27 nM
CN1CCN(c2ccc(Nc3ncc4c(=O)n(-c5c(Cl)cccc5Cl)nc(-c5cccnc5Cl)c4n3)cc2)CC1 [Example 81, 8-(2-chloropyridin-3-yl)-6-(2,6-dichlorophenyl)-2-{[4-(4-methylpiperazin-1-yl)phenyl]amino}pyrimido[4,5-d]pyridazin-5(6H)-one]	4 nM
